The values below are quoted from earlier work in PMC8435859 (Frontiers in Cellular and Infection Microbiology, 2021).

One series relates to PTP1B. On the set-up: method as in Xu F, Yang L, Huang X, et al. Mol Divers. To be noted: ref Xu F, Yang L, Huang X, et al. Mol Divers.; read-out: IC50, PTP1B inhibition; cited from earlier work.
The target in series [1] is 6-phosphogluconate dehydrogenase. More on the design: method as in Ma X, et al. Pest Manag Sci, 2010, 66(7), 718-724. To be noted: ref Ma X, et al. Pest Manag Sci, 2010, 66(7), 718-724; cited from earlier work.
Series [2] shares this target. On the set-up: method as in Ma X, et al. Pest Manag Sci, 2010, 66(7), 718-724. To be noted: ref Ma X, et al. Pest Manag Sci, 2010, 66(7), 718-724; cited from earlier work. This is another data set of the same source.
The subject of a further series is MDAMB231. On the set-up: method as in Wu ZT, et al. Acta Pharmacol Sin. 2014 Sep;35(9):1188-98. To be noted: ref Wu ZT, et al. Acta Pharmacol Sin. 2014 Sep;35(9):1188-98, read-out: IC50, cellular response via inhibition of mTORC1 and induction of ER stress; cited from earlier work.
In a further series the test system is BT474 cells. More on the design: method as in Wu ZT, et al. Acta Pharmacol Sin. 2014 Sep;35(9):1188-98. To be noted: ref Wu ZT, et al. Acta Pharmacol Sin. 2014 Sep;35(9):1188-98, read-out: IC50, cellular response via inhibition of mTORC1 and induction of ER stress; cited from earlier work.
The test system of another series is HeLa cells. More on the design: method as in Wu ZT, et al. Acta Pharmacol Sin. 2014 Sep;35(9):1188-98. The note with it: ref Wu ZT, et al. Acta Pharmacol Sin. 2014 Sep;35(9):1188-98, read-out: IC50, autophagy followed by apoptotic cell death; cited from earlier work.
In series [3] the test system is nuclear factor of activated T cells (NFAT) transcription factor. More on the design: method as in Phan, C., et al. Biofactors, 2016. To be noted: vendor library annotation, ref Phan, C., et al. Biofactors, 2016; cited from earlier work.
For another series, the system named is seed germination. More on the design: method as in Kim T K, Park K S. Cytokine, 2015, 76(2). To be noted: at 3 mM concentration; ref Kim T K, Park K S. Cytokine, 2015, 76(2); cited from earlier work.
The test system of a further series is cyclin-dependent kinases. To be noted: read-out: IC50, cyclin-dependent kinases; ref Hoessel R, et al. Nat Cell Biol, 1999, 1(1), 60-67; cited from earlier work.
In another series the test system is GSK-3β. The note with it: read-out: IC50, GSK-3β; ref Hoessel R, et al. Nat Cell Biol, 1999, 1(1), 60-67; cited from earlier work.
The next series deals with B16F10 cell. On the set-up: method as in ref Abe F, Nagao T, Okabe H. Biological & Pharmaceutical Bulletin, 2002, 25(7):920-922. The note with it: ref Abe F, Nagao T, Okabe H. Biological & Pharmaceutical Bulletin, 2002, 25(7):920-922, read-out: GI50 against B16F10 cell; cited from earlier work.
The next series deals with A549 cells. On the set-up: method as in Li M, et al. Neurosci Lett. 2016. The note with it: vendor library annotation, ref Li M, et al. Neurosci Lett. 2016, read-out: LC50 (the source's name); cited from earlier work.
Series [4] has as its system human adenovirus type 3 (HAdV-3). More on the design: method as in Li M, et al. Neurosci Lett. 2016. To be noted: HAdV-3 in A549 cells; vendor library annotation; ref Li M, et al. Neurosci Lett. 2016; cited from earlier work.
The next series deals with STAT1. More on the design: method as in Shin DS, et al. Cancer Res, 2009, 69(1), 193-202. The note with it: ref Shin DS, et al. Cancer Res, 2009, 69(1), 193-202; cited from earlier work.
A further series deals with STAT3. On the set-up: method as in Shin DS, et al. Cancer Res, 2009, 69(1), 193-202. To be noted: cell-free assay; ref Shin DS, et al. Cancer Res, 2009, 69(1), 193-202; cited from earlier work.
In another series the test system is STAT5. On the set-up: method as in Shin DS, et al. Cancer Res, 2009, 69(1), 193-202. The note with it: ref Shin DS, et al. Cancer Res, 2009, 69(1), 193-202; cited from earlier work.
The subject of a further series is cytochrome P450 1A1. More on the design: method as in Jo SP, Kim JK, Lim YH. Planta Med. 2014 Aug;80(13):1067-71. To be noted: mechanism-based, selective inactivator; ref Jo SP, Kim JK, Lim YH. Planta Med. 2014 Aug;80(13):1067-71; read-out: IC50, cytochrome P450 1A1 inactivation; cited from earlier work.
A further series deals with HepG2. More on the design: method as in Jo SP, Kim JK, Lim YH. Planta Med. 2014 Aug;80(13):1067-71. The note with it: HepG2 cancer cell line; ref Jo SP, Kim JK, Lim YH. Planta Med. 2014 Aug;80(13):1067-71; read-out: IC50, proliferation of HepG2; cited from earlier work.
For the next series, the system named is HL-60R. On the set-up: method as in Jo SP, Kim JK, Lim YH. Planta Med. 2014 Aug;80(13):1067-71. The note with it: HL-60R cancer cell line; ref Jo SP, Kim JK, Lim YH. Planta Med. 2014 Aug;80(13):1067-71; read-out: IC50, proliferation of HL-60R; cited from earlier work.
Another series deals with hepatitis B virus (HBV). More on the design: method as in Abdelwahed A, et al. Chem Biol Interact. 2007. To be noted: at a concentration of 4 microg/ml; library annotation; ref Abdelwahed A, et al. Chem Biol Interact. 2007; cited from earlier work.
A further series has as its system TRPA1. On the set-up: method as in López-Jiménez et al., European Journal of Nutrition, 2013. To be noted: library annotation; ref López-Jiménez et al., European Journal of Nutrition, 2013; read-out: agonist of TRPA1, EC5 value; cited from earlier work.
Another series concerns the target aldose reductase. To be noted: recombinant human aldose reductase; library annotation; ref Huang H et al., Journal of Agricultural and Food Chemistry, 2011; read-out: inhibition of recombinant human aldose reductase, IC5 value; cited from earlier work.
The test system of a further series is PGE2 release. On the set-up: method as in ref Huang H et al., Journal of Agricultural and Food Chemistry, 2011. To be noted: library annotation; ref Huang H et al., Journal of Agricultural and Food Chemistry, 2011; cited from earlier work.
The next series deals with β-secretase (BACE1). On the set-up: method as in Murakami, A., et al. Carcinogenesis 21(10), 1843-1850 (2000). The note with it: ref Murakami, A., et al. Carcinogenesis 21(10), 1843-1850 (2000); cited from earlier work.
A further series addresses tyrosinase. On the set-up: method as in Boissy RE, et al. Exp Dermatol, 2005, 14(8), 601-608. To be noted: reversible inhibition; ref Boissy RE, et al. Exp Dermatol, 2005, 14(8), 601-608; cited from earlier work.
Series [5] concerns T. castaneum adults. On the set-up: method as in Tao J, et al. Zhongguo Zhong Yao Za Zhi. 2011. The note with it: 0.63 μg/cm, vendor library annotation, ref Tao J, et al. Zhongguo Zhong Yao Za Zhi. 2011; cited from earlier work.
For series [6], the system named is T. castaneum adults. More on the design: method as in Tao J, et al. Zhongguo Zhong Yao Za Zhi. 2011. To be noted: vendor library annotation, ref Tao J, et al. Zhongguo Zhong Yao Za Zhi. 2011; cited from earlier work.
Another series addresses lipase. On the set-up: method as in Tao J, et al. Zhongguo Zhong Yao Za Zhi. 2011. The note with it: vendor library annotation, ref Tao J, et al. Zhongguo Zhong Yao Za Zhi. 2011, read-out: IC5 (lipase inhibitory activity); cited from earlier work.
Another series relates to fatty acid synthase. More on the design: method as in Tian, WX. Current Medicinal Chemistry, 2006, 13 (8): 967–977. To be noted: ref Tian, WX. Current Medicinal Chemistry, 2006, 13 (8): 967–977; cited from earlier work.

Bounds are passed on as bounds.

`C=C(C)[C@@H]1CC[C@]2(C)CC[C@]3(C)[C@H](CC[C@@H]4[C@@]5(C)CCC(=O)C(C)(C)[C@@H]5CC[C@]43C)[C@@H]12` [LUPENONE]: the IC50 in the series with PTP1B is 15.1 µM.
For `COc1cc(O)c2c(c1)C(=O)c1cc(C)cc(O)c1C2=O` [Rheochrysidin], the Kd (as a rule, the concentration at which binding is half-saturated) in series [1] was 26 µM. Besides, in series [2], the IC50 was 38.5 µM.
`C[C@H]1CC[C@@]2(OC1)O[C@H]1C[C@H]3[C@@H]4CC[C@@H]5C[C@@H](O[C@@H]6O[C@H](CO)[C@H](O)[C@H](O)[C@H]6O[C@@H]6O[C@H](CO)[C@@H](O)[C@H](O)[C@H]6O)CC[C@]5(C)[C@H]4CC[C@]3(C)[C@H]1[C@@H]2C` [Timosaponin AIII]: the IC50 with MDAMB231 was 6 µM; in the series with BT474 cells, 2.5 µM; in the series on HeLa cells it was 10 µM.
Take `COc1cc2oc(-c3ccccc3)cc(=O)c2c(O)c1O` [Negletein]: the IC50 in [3] was 3.89 µM.
Consider `C[C@]1(OC(=O)/C=C/c2ccccc2)C[C@@H](O)[C@]2(O)C=CO[C@@H](O[C@@H]3O[C@H](CO)[C@@H](O)[C@H](O)[C@H]3O)[C@@H]21` [Harpagoside], for which, in the series on seed germination, the “inhibition of seed germination” value is 1. Harpagoside has anti-inflammatory activity. 2. Harpagoside at 3 mM concentration, shows moderate inhibition of seed germination. 3. Harpagoside can inhibit lipopolysaccharide-induced mRNA levels and protein expression of cyclooxygenase-2 and inducible nitric oxide in HepG2 cells.
`O=C1Nc2ccccc2/C1=C1/Nc2ccccc2C1=O` [Indirubin]: the IC50 was around 5 µM with cyclin-dependent kinases and around 0.6 µM in the series on GSK-3β.
For `C[C@@H]1OC(O[C@@H]2[C@@H](O)[C@H](OCCc3ccc(O)c(O)c3)O[C@H](CO[C@@H]3OC[C@@H](O)[C@H](O)[C@H]3O)[C@H]2OC(=O)/C=C/c2ccc(O)c(O)c2)[C@H](O)[C@H](O)[C@H]1O` (some centres unmarked) [Arenarioside], the concentration for 50% growth inhibition (GI50) (in general, the concentration giving 50% growth inhibition) in the series on B16F10 cell was 10 to 16 µM.
In the case of `CC(C)(O)[C@@H]1CC[C@](C)([C@H]2[C@@H](O)C[C@@]3(C)[C@@H]4C[C@H](O[C@@H]5O[C@H](CO)[C@@H](O)[C@H](O)[C@H]5O)[C@H]5C(C)(C)[C@@H](O[C@@H]6OC[C@@H](O)[C@H](O)[C@H]6O)CC[C@@]56C[C@@]46CC[C@]23C)O1` [Astragaloside IV], the CC50 in the series with A549 cells was 865 µM. For the same compound, the IC50 in [4] was 23 µM.
With `C[C@H]1COC2=C1C(=O)C(=O)c1c2ccc2c1CCCC2(C)C` [Cryptotanshinone], the “inhibition of STAT1” value in the series with STAT1 was “no inhibition”. Also, the IC50 in the series on STAT3 was 4.6 µM. For the same compound, in the series on STAT5, the “inhibition of STAT5” value was “no inhibition”.
As to Rhapontigenin, the IC50 with cytochrome P450 1A1 was 0.4 µM; with HepG2 it was 48 µM; with HL-60R it was 48 µM.
Regarding `O=C(OC[C@H]1OC(OC(=O)c2cc(O)c(O)c(O)c2)[C@H](OC(=O)c2cc(O)c(O)c(O)c2)[C@@H](OC(=O)c2cc(O)c(O)c(O)c2)[C@@H]1OC(=O)c1cc(O)c(O)c(O)c1)c1cc(O)c(O)c(O)c1` (some centres unmarked) [1,2,3,4,6-O-Pentagalloylglucose], in the series on hepatitis B virus (HBV), the “reduction of the HBsAg level” value is given as 25%.
Take `CC(C)c1cc2c(c(O)c1O)[C@@]13CCCC(C)(C)[C@@H]1C[C@@H]2OC3=O` [Carnosol]: in the series on TRPA1, the EC50 is 12.5 µM.
With `CC1OC(OC2C(=O)c3c(O)cc(O)cc3OC2c2ccc(O)cc2)C(O)C(O)C1O` (centres unmarked) [Engeletin], the IC50 at aldose reductase is 1.16 µM. For the same compound, in the series with PGE2 release, the “inhibition of PGE2 release, IC5” value is 19.6 µg/mL.
For `CC(C)=CCC/C(C)=C/COc1ccc2ccc(=O)oc2c1` [Auraptene], the IC50 on β-secretase (BACE1) was 345 µM.
Regarding `Oc1ccc(OC2CCCCO2)cc1` (centres unmarked) [Deoxyarbutin], the IC50 on tyrosinase is 0.05 µM.
As for `C/C=C/C#CC#C/C=C/c1ccco1` [Atractylodin], the repellency in the series with T. castaneum adults [5] is above 90%. Moreover, the LD50 with T. castaneum adults [6] was 1.83 µg/cm. Moreover, the IC50 on lipase is 39.1 µM.
On to `O=c1c(O)c(-c2ccc(O)cc2O)oc2cc(O)cc(O)c12` [Morin], for which the IC50 in the series with fatty acid synthase was 2.33 µM.
